From PubChem BioAssay (NCI)
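Protocol summary: plate cells (96-well), add compound at 5 concentrations, incubate 48 h, interpolate endpoints linearly. GI50 marks 50% less growth. TGI: concentration producing complete growth inhibition.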

Key:
Assay in all cases: growth of human tumour cells (NCI), 48 h
[1] = tested on: HT29 colon
[2] = tested on: MCF7 breast
[3] = tested on: SK-OV-3 ovarian
[4] = tested on: UACC-257 melanoma
[5] = tested on: HCT-116 colon
[6] = tested on: UACC-62 melanoma
[7] = tested on: HOP-92 NSCLC
[8] = tested on: CCRF-CEM leukemia
[9] = tested on: NCI/ADR-RES ovarian
[10] = tested on: NCI-H23 lung
[11] = tested on: SR leukemia
[12] = tested on: OVCAR-4 ovarian
[13] = tested on: HL-60(TB) leukemia
[14] = tested on: SK-MEL-28 melanoma
[15] = tested on: HCC-2998 colon
[16] = tested on: LOX IMVI melanoma
[17] = tested on: MOLT-4 leukemia
[18] = tested on: NCI-H522 lung
[19] = tested on: OVCAR-8 ovarian
[20] = tested on: K-562 leukemia
[21] = tested on: SNB-75 CNS
[22] = tested on: SF-295 CNS
[23] = tested on: RPMI-8226 leukemia
[24] = tested on: OVCAR-5 ovarian
[25] = tested on: RXF 393 renal
[26] = tested on: M14 melanoma
[27] = tested on: SK-MEL-2 melanoma
[28] = tested on: SK-MEL-5 melanoma
[29] = tested on: SF-268 CNS
[30] = tested on: OVCAR-3 ovarian
[31] = tested on: BT-549 breast
[32] = tested on: EKVX NSCLC
[33] = tested on: SF-539 CNS
[34] = tested on: UO-31 renal
[35] = tested on: SNB-19 CNS
[36] = tested on: ACHN renal
[37] = tested on: A549 NSCLC
[38] = tested on: 786-0 renal
[39] = tested on: A498 renal
[40] = tested on: HS 578T breast
[41] = tested on: NCI-H226 lung

H-KIFKKFKTIIKKVWRIFGRF-NH2 was tested, and the GI50 [1] was 2920 nM, the TGI [1] was over 100000 nM and the GI50 [2] was 3040 nM. For the same compound, the TGI [2] was over 100000 nM, the GI50 [3] was 3170 nM and the TGI [3] was 7390 nM. It also gave a GI50 [4] of 2850 nM, a TGI [4] of 9580 nM and a GI50 [5] of 3220 nM. The TGI [5] was over 100000 nM, the GI50 [6] was 2030 nM and the TGI [6] was 4920 nM. It also gave a GI50 [7] of 2000 nM, a TGI [7] of 4670 nM and a GI50 [8] of 2530 nM. It also gave a TGI [8] of over 100000 nM, a GI50 [9] of 2950 nM and a TGI [9] of 9570 nM. It also gave a GI50 [10] of 2440 nM, a TGI [10] of 7510 nM and a GI50 [11] of 2720 nM. For the same compound, the TGI [11] was over 100000 nM, the GI50 [12] was 2130 nM and the TGI [12] was 5400 nM. The GI50 [13] was 5230 nM, the TGI [13] was 57100 nM and the GI50 [14] was 2210 nM. For the same compound, the TGI [14] was 5020 nM, the GI50 [15] was 2650 nM and the TGI [15] was 7680 nM. For the same compound, the GI50 [16] was 2980 nM, the TGI [16] was over 100000 nM and the GI50 [17] was 3130 nM. For the same compound, the TGI [17] was over 100000 nM, the GI50 [18] was 2340 nM and the TGI [18] was over 100000 nM. It also gave a GI50 [19] of 3280 nM, a TGI [19] of over 100000 nM and a GI50 [20] of 2820 nM. The TGI [20] was over 100000 nM, the GI50 [21] was 2500 nM and the TGI [21] was 6990 nM. The GI50 [22] was 2050 nM, the TGI [22] was 4680 nM and the GI50 [23] was 3110 nM. It also gave a TGI [23] of over 100000 nM, a GI50 [24] of 2100 nM and a TGI [24] of 4280 nM. The GI50 [25] was 2090 nM, the TGI [25] was 5190 nM and the GI50 [26] was 2370 nM. The TGI [26] was over 100000 nM, the GI50 [27] was 2630 nM and the TGI [27] was 6230 nM. It also gave a GI50 [28] of 2300 nM, a TGI [28] of 5800 nM and a GI50 [29] of 2080 nM. It also gave a TGI [29] of 5450 nM, a GI50 [30] of 2140 nM and a TGI [30] of 5010 nM. For the same compound, the GI50 [31] was 3540 nM and the TGI [31] was over 100000 nM.
For Cc1ccc(/C=C2\CN(C(=O)CCN3CCC(=NO)CC3)C/C(=C\c3ccc(C)cc3)C2=O)cc1, the GI50 [32] was 2720 nM, the TGI [32] was 8070 nM and the GI50 [5] was 363 nM. For the same compound, the TGI [5] was 1280 nM, the GI50 [7] was 1860 nM and the TGI [7] was 4600 nM. For the same compound, the GI50 [33] was 1770 nM, the TGI [33] was 3270 nM and the GI50 [34] was 1420 nM. The TGI [34] was 2730 nM, the GI50 [13] was 1690 nM and the TGI [13] was 4600 nM. It also gave a GI50 [14] of 2060 nM, a TGI [14] of 4630 nM and a GI50 [15] of 1570 nM. It also gave a TGI [15] of 3180 nM, a GI50 [16] of 185 nM and a TGI [16] of 397 nM. For the same compound, the GI50 [35] was 1580 nM, the TGI [35] was 4430 nM and the GI50 [23] was 286 nM. The TGI [23] was 885 nM, the GI50 [24] was 1790 nM and the TGI [24] was 3470 nM. It also gave a GI50 [25] of 1640 nM, a TGI [25] of 3050 nM and a GI50 [36] of 1400 nM. It also gave a TGI [36] of 2830 nM, a GI50 [37] of 2430 nM and a TGI [37] of 7680 nM. It also gave a GI50 [27] of 2750 nM, a TGI [27] of 7020 nM and a GI50 [38] of 1680 nM. It also gave a TGI [38] of 3420 nM, a GI50 [28] of 1730 nM and a TGI [28] of 3160 nM. The GI50 [29] was 1920 nM, the TGI [29] was 4700 nM and the GI50 [39] was 1480 nM. It also gave a TGI [39] of 2960 nM, a GI50 [40] of 3200 nM and a TGI [40] of over 100000 nM. It also gave a GI50 [41] of 1830 nM and a TGI [41] of 3860 nM.
